Experiments:
[1] = organism: Homo sapiens; test: Selectivity ratio of EC50 for human recombinant GST-6XHis-tagged full-length cytosolic METAP2 to EC50 for human recombinant full-length cytosolic METAP1
[2] = target: Methionine aminopeptidase 1 (Homo sapiens, UniProt P53582)
Description: Inhibition of human recombinant full-length cytosolic METAP1 expressed in Escherichia coli BL21(DE3) using Met-Pro-p-nitroanilide as substrate after 20 mins by spectrophotometric analysis in presence of Bacillus coagulans GST-tagged proline iminopeptidase

[3] = target: Methionine aminopeptidase 2 (Homo sapiens, UniProt P50579); test: biochemical
Description: Inhibition of human recombinant GST-6XHis-tagged full-length cytosolic METAP2 expressed in cabbage looper BTI-TN-5B1-4 cells using Met-Pro-p-nitroanilide as substrate after 20 mins by spectrophotometric analysis in presence of Bacillus coagulans GST-tagged proline iminopeptidase

[4] = target: T1, Proline iminopeptidase (Bacillus coagulans) (UniProt P46541); test: Inhibition of Bacillus coagulans GST-tagged proline iminopeptidase using Pro-p-nitroanilide as substrate at 100 uM relative to control; conditions: Heyndrickxia coagulans
T1 sequence (whole entry): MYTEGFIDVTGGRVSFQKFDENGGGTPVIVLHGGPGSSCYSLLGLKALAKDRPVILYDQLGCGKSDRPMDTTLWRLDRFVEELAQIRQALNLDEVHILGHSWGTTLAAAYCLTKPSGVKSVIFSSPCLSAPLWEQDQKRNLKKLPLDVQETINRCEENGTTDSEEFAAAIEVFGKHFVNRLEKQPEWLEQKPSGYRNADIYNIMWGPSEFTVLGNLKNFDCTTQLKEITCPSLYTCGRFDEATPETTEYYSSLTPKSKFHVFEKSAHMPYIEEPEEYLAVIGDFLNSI

[5] = target: T1, Proline iminopeptidase (Bacillus coagulans); test: Inhibition of Bacillus coagulans GST-tagged proline iminopeptidase using Pro-p-nitroanilide as substrate at 10 uM relative to control; conditions: Heyndrickxia coagulans

Sequence of Methionine aminopeptidase 2 (P50579 whole entry): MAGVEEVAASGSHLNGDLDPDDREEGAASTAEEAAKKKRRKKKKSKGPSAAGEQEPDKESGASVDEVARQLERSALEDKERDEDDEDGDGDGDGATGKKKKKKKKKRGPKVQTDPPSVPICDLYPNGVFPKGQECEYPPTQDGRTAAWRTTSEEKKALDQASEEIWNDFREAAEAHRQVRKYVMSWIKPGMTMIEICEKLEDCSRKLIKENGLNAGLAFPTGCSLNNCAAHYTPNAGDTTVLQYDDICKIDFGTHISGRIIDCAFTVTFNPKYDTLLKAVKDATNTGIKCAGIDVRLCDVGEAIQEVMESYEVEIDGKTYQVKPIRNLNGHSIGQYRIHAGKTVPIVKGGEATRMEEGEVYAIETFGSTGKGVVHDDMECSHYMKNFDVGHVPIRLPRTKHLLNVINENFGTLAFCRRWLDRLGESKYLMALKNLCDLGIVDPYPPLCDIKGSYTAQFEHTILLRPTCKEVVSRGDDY

inhibition [4] | inhibition [5] | Structure (SMILES) | Ratio EC50 [1] | IC50 [2] | IC50 [3]
 |  | Cc1nc(-c2ccc(Cl)cn2)nc(NC[C@H](NCCCCn2cccc2)c2ccccc2)c1Cl | > 200 | 500 nM | > 100000 nM
 |  | COc1cccc(-c2nc(C)c(Cl)c(NC[C@H](NC(=O)CCCN3CCNCC3)c3ccccc3)n2)n1 | > 1.5 | 20000 nM | > 30000 nM
 |  | Cc1nc(-c2ccc(Cl)cn2)nc(NC[C@H](NC(=O)Cc2ccccc2)c2ccccc2)c1Cl | 40 | 700 nM | 28000 nM
 |  | Cc1nc(-c2ccccn2)nc(NC[C@H](NC(=O)CCCN2CCNCC2)c2ccccc2)c1Cl |  |  | > 300000 nM
 |  | Cc1nc(-c2ccc(Cl)cn2)nc(NC[C@H](NC(=O)CCCCCc2ccccc2)c2ccccc2)c1Cl | > 45 | 670 nM | > 30000 nM
 |  | Cc1nc(-c2ccc(Cl)cn2)nc(NC[C@H](NCCCc2ccccc2)c2ccccc2)c1Cl | > 1150 | 260 nM | > 300000 nM
 |  | Cc1nc(-c2ccccn2)nc(NC[C@H](NC(=O)CCCN2CCN(CCO)CC2)c2ccccc2)c1Cl |  |  | > 300000 nM
 |  | Cc1nc(-c2ccc(Br)cn2)nc(NC[C@H](NC(=O)CCCN2CCNCC2)c2ccccc2)c1Cl | 161 | 330 nM | 53000 nM
 |  | Cc1nc(-c2cc(Cl)ccn2)nc(NC[C@H](NC(=O)CCCN2CCNCC2)c2ccccc2)c1Cl | > 411 | 730 nM | > 300000 nM
 |  | Cc1nc(-c2ccccn2)nc(NC2CCN(c3ncc(C(F)(F)F)cc3Cl)CC2)c1Cl |  |  | > 100000 nM
 |  | Cc1nc(-c2ccc(Cl)cn2)nc(NCC(CCCc2ccccc2)c2ccccc2)c1Cl (configuration not stated) | > 1250 | 160 nM | > 200000 nM
 |  | Cc1nc(-c2ccc(F)cn2)nc(NC[C@H](NC(=O)CCCN2CCNCC2)c2ccccc2)c1Cl | 24 | 49 nM | 1200 nM
 |  | Cc1cc(NCCc2ccccc2)nc(-c2ccccn2)n1 |  | > 100000 nM | > 100000 nM
 |  | Cc1nc(-c2ccccn2)nc(NCCNc2ccc(C(F)(F)F)cn2)c1Cl |  |  | > 100000 nM
 |  | Cc1nc(-c2ccccn2)nc(NCCc2ccccc2)c1C |  | > 100000 nM | > 100000 nM
 |  | Cc1nc(-c2ccc(N(C)C)cn2)nc(NC[C@H](NC(=O)CCCN2CCNCC2)c2ccccc2)c1Cl | 12 | 140 nM | 1700 nM
 |  | Cc1nc(-c2ccc(Cl)cn2)nc(NC[C@H](NCCCCc2ccccc2)c2ccccc2)c1Cl |  |  | > 100000 nM
 |  | Cc1nc(-c2ccc(Cl)cn2)nc(NC[C@H](NCCCCCc2ccccc2)c2ccccc2)c1Cl | > 138 | 780 nM | > 100000 nM
 |  | COc1ccc(-c2nc(C)c(Cl)c(NC[C@H](NC(=O)CCCN3CCNCC3)c3ccccc3)n2)nc1 | > 1110 | 270 nM | > 300000 nM
 |  | Cc1nc(-c2ccc(Cl)cn2)nc(NC[C@H](NCCCCCCc2ccccc2)c2ccccc2)c1Cl | > 42 | 710 nM | > 30000 nM
 |  | Cc1nc(-c2ccc(Cl)cn2)nc(NCC(CCc2ccccc2)c2ccccc2)c1Cl (configuration not stated) | > 3180 | 63 nM | > 200000 nM
 |  | Cc1nc(-c2ccc(Cl)cn2)nc(NC[C@H](NC(=O)CCc2ccccc2)c2ccccc2)c1Cl | > 323 | 93 nM | > 30000 nM
 |  | Cc1nc(-c2ccc(Cl)cn2)nc(NC[C@H](NCCCCc2cccs2)c2ccccc2)c1Cl | > 789 | 380 nM | > 300000 nM
 |  | Cc1nc(-c2ccc(Cl)cn2)nc(NC[C@H](NCCc2ccccc2)c2ccccc2)c1Cl | > 384 | 260 nM | > 100000 nM
 |  | Cc1nc(-c2ccc(Cl)cn2)nc(NC[C@H](NCCCCc2ccc3ccccc3n2)c2ccccc2)c1Cl | > 435 | 690 nM | > 300000 nM
 |  | Cc1nc(-c2ccc([N+](=O)[O-])cn2)nc(NC[C@H](NC(=O)CCCN2CCNCC2)c2ccccc2)c1Cl | 47 | 300 nM | 14000 nM

inhibition [4] | inhibition [5] | Structure (SMILES) | Ratio EC50 [1] | IC50 [2] | IC50 [3]
 |  | Cc1nc(-c2cccnc2)nc(NCc2ccccc2)c1Cl |  | > 100000 nM | > 100000 nM
 |  | Cc1nc(-c2ccc(Cl)cn2)nc(NC[C@H](NCCCCc2ccc(O)cc2)c2ccccc2)c1Cl | > 714 | 420 nM | > 300000 nM
 |  | Cc1nc(-c2ccc(Cl)cn2)nc(NCC(CCCCc2ccccc2)c2ccccc2)c1Cl (configuration not stated) | > 1000 | 200 nM | > 200000 nM
 |  | Cc1nc(-c2ccccn2)nc(N2CCN(CCO)CC2)c1Cl |  |  | > 100000 nM
 |  | Cc1nc(-c2ccc(N3CCCC3)cn2)nc(NC[C@H](NC(=O)CCCN2CCNCC2)c2ccccc2)c1Cl | 1.1 | 1700 nM | 1100 nM
 |  | COc1cccnc1-c1nc(C)c(Cl)c(NC[C@H](NC(=O)CCCN2CCNCC2)c2ccccc2)n1 | > 120 | 2500 nM | > 300000 nM
 |  | Cc1nc(-c2ccc(Cl)cn2)nc(NC[C@H](NCCCCc2ccc(Cl)cc2)c2ccccc2)c1Cl | > 526 | 570 nM | > 300000 nM
 |  | Cc1nc(-c2ccccn2)nc(SCCc2ccccc2)c1Cl |  |  | > 100000 nM
 |  | Cc1nc(-c2ccccn2)nc(NC[C@H](NCCCN2CCN(CCO)CC2)c2ccccc2)c1Cl |  |  | 101000 nM
 |  | Cc1nc(-c2ccccn2)nc(NCCNc2cccc(C(F)(F)F)n2)c1Cl |  |  | > 100000 nM
 |  | COc1ccnc(-c2nc(C)c(Cl)c(NC[C@H](NC(=O)CCCN3CCNCC3)c3ccccc3)n2)c1 | 26 | 530 nM | 14000 nM
 |  | Cc1nc(-c2ccccn2)nc(NC[C@H](NC(=O)CCN2CCN(CCO)CC2)c2ccccc2)c1Cl |  |  | 114000 nM
 |  | Cc1nc(-c2cccc(Cl)n2)nc(NC[C@H](NC(=O)CCCN2CCNCC2)c2ccccc2)c1Cl | > 4.2 | 7200 nM | > 30000 nM
 |  | Cc1nc(-c2ccc(Cl)cn2)nc(NC[C@H](NCc2ccccc2)c2ccccc2)c1Cl | 141 | 220 nM | 31000 nM
 |  | Cc1nc(-c2ccc(Cl)cn2)nc(NC[C@H](NC(=O)CCCCc2ccccc2)c2ccccc2)c1Cl | > 23 | 1300 nM | > 30000 nM
 |  | CCCOc1ccc(CCCCN[C@@H](CNc2nc(-c3ccc(Cl)cn3)nc(C)c2Cl)c2ccccc2)cc1 | > 250 | 1200 nM | > 300000 nM
 |  | Cc1nc(-c2ccccn2)nc(NC[C@H](NCCCN2CCNCC2)c2ccccc2)c1Cl |  |  | 108000 nM
97% | 27% | Cc1nc(-c2ccc(Cl)cn2)nc(NC[C@H](NCCCCc2ccc(C#N)cc2)c2ccccc2)c1Cl | 31 | 520 nM | 16000 nM
 |  | Cc1nc(-c2ccc(Cl)cn2)nc(NC[C@H](NCCCCc2ccco2)c2ccccc2)c1Cl | > 909 | 330 nM | > 300000 nM
 |  | Cc1nc(-c2ccc(Cl)cn2)nc(NC[C@H](NC(=O)CCCN2CCNCC2)c2ccccc2)c1Cl | 33 | 36 nM | 1200 nM
 |  | Cc1nc(-c2ncccc2Cl)nc(NC[C@H](NC(=O)CCCN2CCNCC2)c2ccccc2)c1Cl | > 39 | 7600 nM | > 300000 nM
 |  | Cc1nc(-c2ccc(Cl)cn2)nc(NC[C@H](NC(=O)CCCc2ccccc2)c2ccccc2)c1Cl | > 188 | 160 nM | > 30000 nM
 |  | Cc1nc(-c2ccccn2)nc(NC[C@H](NCCCCN2CCNCC2)c2ccccc2)c1Cl |  |  | 188000 nM
 |  | Cc1nc(-c2ccccn2)nc(NC[C@H](NCCCCN2CCN(CCO)CC2)c2ccccc2)c1Cl |  |  | 197000 nM
 |  | Cc1nc(-c2ccc(Cl)cn2)nc(NCC(CCCCCc2ccccc2)c2ccccc2)c1Cl (racemic) | > 87 | 2300 nM | > 200000 nM
 |  | Cc1nc(-c2ccccn2)nc(SCc2ccccc2)c1Cl |  |  | > 100000 nM

Reference: ChEMBL document CHEMBL2390953, “Pyridinylpyrimidines selectively inhibit human methionine aminopeptidase-1” (Bioorg Med Chem, 2013)
